Results published in PubChem BioAssay AID256 (DTP/NCI, 2004).
“And” between values parts separate entries of the source, which are not always exact repeats. Equal entries are not always repeated. Inconclusive results and toxic doses are left out. Rule for the calls: active = survival T/C of 150% or more; inactive = T/C below 125% in these data.

Tested on: CD2F1 mice, L1210 leukemia ip, survival T/C
Assay: NCI In Vivo Anticancer Drug Screen. Data for tumor model L1210 Leukemia (intraperitoneal) in CD2F1 (CDF1) mice
Conditions: higher = longer survival
Outline: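 Tumor-bearing mice (transplanted tumor) were split into treated and vehicle control groups, and the measured endpoint of each treated group was divided by that of its vehicle controls.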

[1] = endpoint: mean survival time, dose: 400.0 mg/kg/injection, schedule: Q01DX001 (ip), vehicle: saline with Tween-80
[2] = endpoint: mean survival time, dose: 50.0 mg/kg/injection, schedule: Q01DX009 (ip), vehicle: saline with Tween-80
[3] = endpoint: mean survival time, dose: 100.0 mg/kg/injection, schedule: Q01DX009 (ip), vehicle: saline with Tween-80
[4] = endpoint: mean survival time, dose: 100.0 mg/kg/injection, schedule: Q01DX001 (ip), vehicle: saline
[5] = endpoint: mean survival time, dose: 200.0 mg/kg/injection, schedule: Q01DX001 (ip), vehicle: saline
[6] = endpoint: mean survival time, dose: 400.0 mg/kg/injection, schedule: Q01DX001 (ip), vehicle: saline
[7] = endpoint: mean survival time, dose: 50.0 mg/kg/injection, schedule: Q01DX009 (ip), vehicle: saline
[8] = endpoint: mean survival time, dose: 100.0 mg/kg/injection, schedule: Q01DX009 (ip), vehicle: saline
[9] = endpoint: mean survival time, dose: 200.0 mg/kg/injection, schedule: Q01DX009 (ip), vehicle: saline
[10] = endpoint: mean survival time, dose: 100.0 mg/kg/injection, schedule: Q04DX003 (ip), vehicle: saline
[11] = endpoint: mean survival time, dose: 12.5 mg/kg/injection, schedule: Q01DX005 (ip), vehicle: water
[12] = endpoint: mean survival time, dose: 25.0 mg/kg/injection, schedule: Q01DX005 (ip), vehicle: water
[13] = endpoint: mean survival time, dose: 50.0 mg/kg/injection, schedule: Q01DX005 (ip), vehicle: water
[14] = endpoint: mean survival time, dose: 100.0 mg/kg/injection, schedule: Q01DX005 (ip), vehicle: water
[15] = endpoint: mean survival time, dose: 200.0 mg/kg/injection, schedule: Q01DX005 (ip), vehicle: water

Measured: T/C

[Cl][Pt+2][Cl].[NH-]CC([NH-])c1ccc2oc3ccccc3c2c1 (stereo unspecified)
inactive: endpoint: median survival time, dose: 10.0 mg/kg/injection, schedule: Q04DX003 (ip), vehicle: saline 100 % of control | endpoint: median survival time, dose: 20.0 mg/kg/injection, schedule: Q04DX003 (ip), vehicle: saline 94 % of control | endpoint: median survival time, dose: 40.0 mg/kg/injection, schedule: Q04DX003 (ip), vehicle: saline 105 % of control | endpoint: median survival time, dose: 80.0 mg/kg/injection, schedule: Q04DX003 (ip), vehicle: saline with Tween-80 107 % of control | endpoint: median survival time, dose: 80.0 mg/kg/injection, schedule: Q04DX003 (ip), vehicle: saline 110 % of control

COC(=O)C1CN1C1=C(C)C(=O)C2=C(C1=O)C(COC(N)=O)C1(OC)C3NC3CN21 (stereo unspecified)
inactive: endpoint: median survival time, dose: 1.5 mg/kg/injection, schedule: Q01DX001 (ip), vehicle: water 104 % of control | endpoint: median survival time, dose: 3.0 mg/kg/injection, schedule: Q01DX001 (ip), vehicle: water 103 % of control | endpoint: median survival time, dose: 6.0 mg/kg/injection, schedule: Q01DX001 (ip), vehicle: water 123 % of control | endpoint: median survival time, dose: 12.0 mg/kg/injection, schedule: Q01DX001 (ip), vehicle: water 123 % of control | endpoint: median survival time, dose: 24.0 mg/kg/injection, schedule: Q01DX001 (ip), vehicle: water 121 % of control and 124 % of control

Oc1ccc(-c2nc3ccccc3s2)cc1
inactive: endpoint: mean survival time, dose: 100.0 mg/kg/injection, schedule: Q01DX001 (ip), vehicle: saline with Tween-80 91 % of control | endpoint: mean survival time, dose: 200.0 mg/kg/injection, schedule: Q01DX001 (ip), vehicle: saline with Tween-80 95 % of control | [1] 91 % of control

CC1(C)CC2(OC2c2ccccc2)C(C)(O)c2ccccc21 (stereo unspecified)
inactive: endpoint: mean survival time, dose: 100.0 mg/kg/injection, schedule: Q01DX009 (ip), vehicle: other 105 % of control | endpoint: mean survival time, dose: 200.0 mg/kg/injection, schedule: Q01DX009 (ip), vehicle: other 113 % of control | endpoint: mean survival time, dose: 400.0 mg/kg/injection, schedule: Q01DX009 (ip), vehicle: other 104 % of control

N#CC1(Cc2ccc(OCc3ccccc3)c(OCc3ccccc3)c2)c2ccccc2C=CN1C(=O)c1ccccc1 (stereo unspecified)
inactive: endpoint: mean survival time, dose: 25.0 mg/kg/injection, schedule: Q01DX009 (ip), vehicle: saline with Tween-80 103 % of control | [2] 100 % of control | [3] 91 % of control

CCOC(=O)c1cccc2ncccc12
inactive: endpoint: mean survival time, dose: 75.0 mg/kg/injection, schedule: Q04DX003 (ip), vehicle: saline 101 % of control | endpoint: mean survival time, dose: 150.0 mg/kg/injection, schedule: Q04DX003 (ip), vehicle: saline 93 % of control | endpoint: mean survival time, dose: 300.0 mg/kg/injection, schedule: Q04DX003 (ip), vehicle: saline 97 % of control

CN(C)c1ccc(/C=C/c2nc(N)nc(N)c2[N+](=O)[O-])cc1
inactive: endpoint: mean survival time, dose: 25.0 mg/kg/injection, schedule: Q01DX009 (ip), vehicle: water 98 % of control | endpoint: mean survival time, dose: 50.0 mg/kg/injection, schedule: Q01DX009 (ip), vehicle: water 97 % of control | endpoint: mean survival time, dose: 100.0 mg/kg/injection, schedule: Q01DX009 (ip), vehicle: water 97 % of control | endpoint: mean survival time, dose: 200.0 mg/kg/injection, schedule: Q01DX009 (ip), vehicle: water 92 % of control | endpoint: mean survival time, dose: 400.0 mg/kg/injection, schedule: Q01DX009 (ip), vehicle: water 90 % of control

O=C1CC2OCC=C3CN4CCC5(C(=O)O)C(N1)C2C3CC45 (stereo unspecified)
inactive: endpoint: mean survival time, dose: 75.0 mg/kg/injection, schedule: Q01DX001 (ip), vehicle: saline 106 % of control | endpoint: mean survival time, dose: 150.0 mg/kg/injection, schedule: Q01DX001 (ip), vehicle: saline 100 % of control | endpoint: mean survival time, dose: 300.0 mg/kg/injection, schedule: Q01DX001 (ip), vehicle: saline 100 % of control

CC(C)CC(=O)c1ccccc1O
inactive: [4] 100 % of control | [5] 97 % of control | [6] 96 % of control

N#CC1CC(c2cccs2)Nc2ccccc2N1 (stereo unspecified)
inactive: endpoint: mean survival time, dose: 100.0 mg/kg/injection, schedule: Q04DX003 (ip), vehicle: saline with Tween-80 94 % of control | endpoint: mean survival time, dose: 200.0 mg/kg/injection, schedule: Q04DX003 (ip), vehicle: saline with Tween-80 90 % of control | endpoint: mean survival time, dose: 400.0 mg/kg/injection, schedule: Q04DX003 (ip), vehicle: saline with Tween-80 100 % of control

Cc1ccc(C(=O)OCCN2CCOCC2)c([N+](=O)[O-])c1OCc1ccccc1
inactive: endpoint: mean survival time, dose: 100.0 mg/kg/injection, schedule: Q04DX002 (ip), vehicle: other 94 % of control | endpoint: mean survival time, dose: 200.0 mg/kg/injection, schedule: Q04DX002 (ip), vehicle: other 103 % of control | endpoint: mean survival time, dose: 400.0 mg/kg/injection, schedule: Q04DX002 (ip), vehicle: other 91 % of control

C=C1C(=O)OC2CCCC/C=C\C12 (stereo unspecified)
inactive: [7] 100 % of control | [8] 102 % of control | [9] 97 % of control

COC(=O)/C([O-])=C(\C(=O)OC)[n+]1cc(Br)cc2ccccc21
inactive: endpoint: mean survival time, dose: 100.0 mg/kg/injection, schedule: Q04DX002 (ip), vehicle: saline with Tween-80 101 % of control | endpoint: mean survival time, dose: 200.0 mg/kg/injection, schedule: Q04DX002 (ip), vehicle: saline with Tween-80 104 % of control

O=S(=O)(O)O.[N-]=C(N)/N=C(\[NH-])N.[N-]=C(N)/N=C(\[NH-])N.[N-]=C(N)NC(=[N-])N.[Rh+3]
inactive: endpoint: mean survival time, dose: 25.0 mg/kg/injection, schedule: Q04DX003 (ip), vehicle: saline 96 % of control | [10] 100 % of control

CC(C)(CO)CCCCCCC(C)(C)CO
inactive: [2] 98 % of control | [3] 106 % of control | endpoint: mean survival time, dose: 200.0 mg/kg/injection, schedule: Q01DX009 (ip), vehicle: saline with Tween-80 106 % of control

O=C(Nc1ccccc1)OC1CCCCC1OC(=O)Nc1ccccc1 (stereo unspecified)
inactive: [1] 86 % of control

COC(=O)c1ncn(C2OC(COC(C)=O)C(OC(C)=O)C2OC(C)=O)c1C(=O)OC (stereo unspecified)
inactive: [11] 87 % of control | [12] 94 % of control | [13] 90 % of control | [14] 100 % of control | [15] 96 % of control

CC12OC3(C)C4C(=O)OC1C1(C)OC4(C)C3C(=O)OC21
inactive: [4] 106 % of control | [10] 100 % of control | [5] 102 % of control | endpoint: mean survival time, dose: 200.0 mg/kg/injection, schedule: Q04DX003 (ip), vehicle: saline 102 % of control | [6] 100 % of control | endpoint: mean survival time, dose: 400.0 mg/kg/injection, schedule: Q04DX003 (ip), vehicle: saline 97 % of control

COc1cccc(CN2CCCNCC2)c1
inactive: [12] 96 % of control | [13] 96 % of control | [14] 94 % of control

NCCNCCNCc1ccccc1
inactive: [8] 94 % of control | [9] 107 % of control

COc1cc(NC(C)CCCN)c2ncccc2c1 (stereo unspecified)
inactive: endpoint: mean survival time, dose: 12.5 mg/kg/injection, schedule: Q01DX009 (ip), vehicle: saline sonified 102 % of control | endpoint: mean survival time, dose: 12.5 mg/kg/injection, schedule: Q04DX003 (ip), vehicle: saline with Tween-80 104 % of control | endpoint: mean survival time, dose: 25.0 mg/kg/injection, schedule: Q01DX009 (ip), vehicle: saline sonified 97 % of control | endpoint: mean survival time, dose: 25.0 mg/kg/injection, schedule: Q04DX003 (ip), vehicle: saline with Tween-80 93 % of control | endpoint: mean survival time, dose: 50.0 mg/kg/injection, schedule: Q01DX009 (ip), vehicle: saline sonified 102 % of control | endpoint: mean survival time, dose: 50.0 mg/kg/injection, schedule: Q04DX003 (ip), vehicle: saline with Tween-80 101 % of control

NC(CSC(c1ccccc1)(c1ccccc1)c1cccc2ccccc12)C(=O)O (stereo unspecified)
inactive: endpoint: mean survival time, dose: 25.0 mg/kg/injection, schedule: Q01DX009 (ip), vehicle: saline 100 % of control | [7] 100 % of control | [8] 110 % of control | [9] 102 % of control

NCCc1nc[nH]c1[N+](=O)[O-]
inactive: [11] 106 % of control | [12] 97 % of control | [13] 97 % of control | [14] 103 % of control | [15] 92 % of control
